Reference: patent US4250259A, “Microbiological production of ketones from C3 -C6 secondary alcohols” (priority 1979, dated 1981)

What was measured:
[1] = tested on: secondary alcohol dehydrogenase (SADH), cell-free soluble extract; assay: oxidation of sec-alcohols by cell-free soluble extracts; format: biochemical, Pseudomonas sp. CRL 75 (ATCC 21,439); conditions: for Oxidation Rate, sec-alcohol to corresponding ketone: soluble crude extract, grown on methanol
Description: (§1) To prepare the cell-free secondary alcohol dehydrogenase (SADH) system, the washed cells were disrupted with a Wave Energy Ultrasonic Oscillator, Model W201 (Wave Energy System, Inc., Newtown, Pa.) and centrifuged at 20,000×g. for 30 minutes. […] The enzyme activity was measured with a fluorescence spectrophotometer (Perkin Elmer, Model MPF 44A) by following the formation of reduced NAD (EX 340 nm, Em 460 nm). The formation of reduced NAD was also followed with an absorption spectrophotometer at 340 nm. The assay system (3 ml.) contained: potassium phosphate buffer pH 7.0; 150 μmol.; NAD 1 μmol.; a given amount of enzyme preparation; and secondary alcohol 10 μmol. The reaction was started by the addition of substrate. One unit of enzyme activity represents the reduction of one μmole NAD per minute. Protein concentrations were determined by the Lowry method (J. Biol. Chem., 193: 255-275 (1951)).
(§2) The experimental procedure for the tests reported in Table VIII were as follows: 1 mg protein of crude extract was added into a 0.5 ml. 0.05 M phosphate buffer (pH 7.0) in a 10-ml. vial. […] The reaction mixture was incubated at 30° C. on a water bath. A 3 μl sample was removed with a syringe at 15 min. of incubation and was assayed with g.l.c. Catalytic activity was also assayed by fluorescence spectrophotometry.

[2] = tested on: Kloeckera sp. Strain A2 (NRRLY-11,420); assay: sec-alcohols to ketones by cell suspensions of yeasts; format: cell-based
[3] = tested on: purified secondary alcohol dehydrogenase (SADH); assay: substrate specificity and Michaelis constants of purified SADH; format: biochemical, Pseudomonas sp. ATCC 21439
[4] = tested on: cell extracts (NAD+-dependent secondary alcohol dehydrogenase); assay: sec-alcohols to methyl ketones by cell extracts of yeasts, gas chromatography; format: biochemical, Pichia sp. NRRL-Y-11,328; conditions: grown on methanol
[5] = tested on: Methanomonas methylovora ATCC 21852 (Obligate); assay: sec-alcohols to ketones by resting cell suspensions; format: cell-based
Description: (§3) The pH of the nutrient medium was adjusted to 7.0 by the addition of acid or base and 50 ml. samples of the nutrient medium were charged into a plurality of 300 ml. shaker flasks. The shaker flasks were inoculated with an inoculating loop of cells from an agar plate containing homogeneous colonies of the microorganisms on the plate (the purity of the isolates was confirmed by microscopic examination). The isolates had been maintained on methanol (0.4% V/V) agar plates or on agar plates under an atmosphere of methane and air having a 1:1 V/V gas ratio which had been transferred every two weeks. For growth on methanol, the medium was supplemented with 0.4% methanol. For growth on methane, the gaseous phase of the inoculated flasks was replaced with a gas mixture comprised of methane and air having a ratio of 1:1 on a V/V basis. The inoculated flasks were sealed air-tight and were incubated on a rotary shaker of orbital radius 2.5 cm. at 250 rpm and at 30° C. for two days until turbidity in the medium had developed. The cells were harvested by centrifugation at 10,000×g. at 4° C. for 30 minutes. The cell pellet was washed twice with a 0.05 M phosphate buffer at a pH of 7.0 (containing 0.02 M MgCl2). The washed cells were then suspended in a 0.05 M phosphate buffer at pH 7.0.
(§4) A 0.5 ml. sample of each washed cell suspension (2 mg. cells) was put into 10 ml. vials at 4° C. which were sealed with a rubber cap. The gaseous phase of the vials was removed with vacuum and then was replaced with a gas mixture of the substrate reactant (i.e., alkane or secondary alcohol) and oxygen at a 1:1 V/V ratio. (In the case of a liquid substrate, i.e., secondary alcohol, 10 μl of the substrate was put in the 10 ml. vials). […] Samples of product (1-3 μl) were withdrawn periodically with a microsyringe and the products were analyzed by gas chromatography (ionization flame detector column).
(§5) The procedure in Example 1 was repeated except that a plurality of methanol-utilizing methylotrophic microorganisms were each aerobically grown in a methanol-containing nutrient medium instead of a methane-containing medium. The nutrients in the medium were the same as indicated in Example 1 except that 0.4% V/V methanol was used as the alcohol dehydrogenase inducer and as the major carbon and energy source for growth. The cells were harvested and washed as described in Example 1. The resting microbial cells of the induced methanol-grown methanol-utilizing methylotrophic microorganisms were then contacted with C3 -C6 secondary alcohols in a buffered solution by the procedure of Example 1.
(§6) The procedure in Example 1 was repeated except that the methylotrophic microorganisms were each aerobically grown in an alcohol dehydrogenase-inducing growth medium containing methylamine or methyl formate as the alcohol dehydrogenase enzyme inducer and growth substrate instead of methane. The nutrients in the medium were the same as indicated in Example 1 except that 0.4% V/V of the alcohol dehydrogenase-inducer growth substrate was used as the major carbon and energy source. The cells were harvested and washed as described in Example 1. The resting microbial cells were then contacted with C3 -C6 secondary alcohols in a buffered solution by the conversion procedure of Example 1.

[6] = tested on: Pseudomonas sp. ATCC 21438 (Facultative); assay: as above; format: cell-based
Description: as §3, §4, §5, §6

[7] = tested on: secondary alcohol dehydrogenase (SADH), cell-free soluble extract; assay: oxidation of sec-alcohols by cell-free soluble extracts; format: biochemical, Methylobacterium organophilum CRL 26 (NRRL B-11,222); conditions: for Oxidation Rate, sec-alcohol to corresponding ketone: soluble crude extract, grown on methanol
Description: as §1, §2

[8] = tested on: cell extracts (NAD+-dependent secondary alcohol dehydrogenase); assay: sec-alcohols to methyl ketones by cell extracts of yeasts, gas chromatography; format: biochemical, Torulopsis sp. strain A1 NRRL-Y-11,419; conditions: grown on methanol
[9] = tested on: Pichia sp. NRRL-Y-11328; assay: sec-alcohols to ketones by cell suspensions of yeasts; format: cell-based
[10] = tested on: purified secondary alcohol dehydrogenase; assay: substrate specificity, electron acceptor and stoichiometry of purified yeast SADH; conditions: for oxidation by the purified yeast secondary alcohol dehydrogenase: examined spectrophotometrically
[11] = tested on: cell extracts (NAD+-dependent secondary alcohol dehydrogenase); assay: sec-alcohols to methyl ketones by cell extracts of yeasts, gas chromatography; format: biochemical, Hansenula polymorpha ATCC 26,012; conditions: grown on methanol

Compound | Oxidation Rate, sec-alcohol to corresponding ketone [1] [nmole/min/mg protein] | Conversion Rate, sec-alcohol to corresponding ketone ([2]; Growth Substrate Ethanol) | Conversion Rate, sec-alcohol to corresponding ketone ([2]; Growth Substrate Methanol) | Conversion Rate, sec-alcohol to corresponding ketone ([2]; Growth Substrate Methylamine) | Conversion Rate, sec-alcohol to corresponding ketone ([2]; Growth Substrate Methylformate) | Conversion Rate, sec-alcohol to corresponding ketone ([2]; Growth Substrate Propylamine) | oxidation by purified SADH [3] | Conversion Rate, sec-alcohol to methyl ketone [4] [μmoles/hr/mg Protein] | Conversion Rates, sec-alcohol to corresponding ketone ([5]; methanol-grown cells) [μmoles/hr/mg protein] | Conversion Rates, sec-alcohol to corresponding ketone ([5]; methyl formate-grown cells) [μmoles/hr/mg protein] | Conversion Rates, sec-alcohol to corresponding ketone ([5]; methylamine-grown cells) [μmoles/hr/mg protein] | Conversion Rates, sec-alcohol to corresponding ketone ([6]; methanol-grown cells) [μmoles/hr/mg protein] | Conversion Rates, sec-alcohol to corresponding ketone ([6]; methyl formate-grown cells) [μmoles/hr/mg protein] | Conversion Rates, sec-alcohol to corresponding ketone ([6]; methylamine-grown cells) [μmoles/hr/mg protein] | Oxidation Rate, sec-alcohol to corresponding ketone [7] [nmole/min/mg protein] | Conversion Rate, sec-alcohol to methyl ketone [8] [μmoles/hr/mg Protein] | Conversion Rate, sec-alcohol to corresponding ketone ([9]; Growth Substrate Ethanol) | Conversion Rate, sec-alcohol to corresponding ketone ([9]; Growth Substrate Methanol) | Conversion Rate, sec-alcohol to corresponding ketone ([9]; Growth Substrate Methylamine) | Conversion Rate, sec-alcohol to corresponding ketone ([9]; Growth Substrate Methylformate) | also measured
CCC(C)O (stereo not drawn) [2-Butanol, 2-butanol] | 25.0 | 5.7 μmoles/hr/mg of protein | 5.9 μmoles/hr/mg of protein | 5.4 μmoles/hr/mg of protein | 5.9 μmoles/hr/mg of protein | 4.2 μmoles/hr/mg of protein | highest | 6.2 | 2.5 | 2.1 | 3.2 | 3.2 | 3.2 | 2.1 | 2.5 | 4.9 | 6.2 μmoles/hr/mg of protein | 6.8 μmoles/hr/mg of protein | 5.1 μmoles/hr/mg of protein | 6.9 μmoles/hr/mg of protein | Conversion Rate, 2-butanol to 2-butanone ([1]; Growth Substrate CH3 OH): 25.0 nmoles/min/mg protein; Conversion Rate, 2-butanol to 2-butanone ([7]; Growth Substrate CH3 NH2): 2.0 nmoles/min/mg protein; Conversion Rate, 2-butanol to 2-butanone ([7]; Growth Substrate CH3 OH): 2.5 nmoles/min/mg protein; Conversion Rate, 2-butanol to 2-butanone ([7]; Growth Substrate CH4): 1.8 nmoles/min/mg protein; Conversion Rate, 2-butanol to 2-butanone ([7]; Growth Substrate HCOOCH3): 2.0 nmoles/min/mg protein; Conversion Rate, sec-alcohol to corresponding ketone ([9]; Growth Substrate Propylamine): 2.1 μmoles/hr/mg of protein; oxidation by the purified yeast secondary alcohol dehydrogenase [10]: catalyzed the oxidation; Product Formed ([10]; stoichiometry, Acetone from Isopropanol, 2-Butanone from 2-Butanol, gas chromatography): 5.7 µmol; Conversion Rate, sec-alcohol to methyl ketone [11]: 5.2 μmoles/hr/mg Protein
CCCCC(C)O (stereo not drawn) [2-Hexanol, 2-hexanol] | 0 | 0.12 μmoles/hr/mg of protein | 0.25 μmoles/hr/mg of protein | 0.10 μmoles/hr/mg of protein | 0.28 μmoles/hr/mg of protein | 0.11 μmoles/hr/mg of protein | lower rate | 0.60 | 1.0 | 0.60 | 0.09 | 0.7 | 0.80 | 0.07 | 0 | 0.21 | 0.28 μmoles/hr/mg of protein | 0.50 μmoles/hr/mg of protein | 0.31 μmoles/hr/mg of protein | 0.48 μmoles/hr/mg of protein | Conversion Rate, sec-alcohol to corresponding ketone ([9]; Growth Substrate Propylamine): 0.21 μmoles/hr/mg of protein; oxidation by the purified yeast secondary alcohol dehydrogenase [10]: catalyzed the oxidation; Conversion Rate, sec-alcohol to methyl ketone [11]: 0.51 μmoles/hr/mg Protein
CCCC(C)O (stereo not drawn) [2-Pentanol, 2-pentanol] | 1.2 | 1.0 μmoles/hr/mg of protein | 1.2 μmoles/hr/mg of protein | 1.0 μmoles/hr/mg of protein | 1.2 μmoles/hr/mg of protein | 0.92 μmoles/hr/mg of protein | lower rate | 1.2 | 2.1 | 1.5 | 1.0 | 2.7 | 2.0 | 0.82 | 0.1 | 1.0 | 1.0 μmoles/hr/mg of protein | 1.2 μmoles/hr/mg of protein | 0.72 μmoles/hr/mg of protein | 0.98 μmoles/hr/mg of protein | Conversion Rate, sec-alcohol to corresponding ketone ([9]; Growth Substrate Propylamine): 0.60 μmoles/hr/mg of protein; oxidation by the purified yeast secondary alcohol dehydrogenase [10]: catalyzed the oxidation; Conversion Rate, sec-alcohol to methyl ketone [11]: 1.0 μmoles/hr/mg Protein
